Data published in PubChem BioAssay AID1963967 (Molecular Pharmacology Branch, DTP, NCI, 2024).

Tested on: 855422-203-R-J1-PDC spheroids with HUVEC/MSC, viability
Assay: Anticancer human tumor 855422-203-R-J1-PDC patient-derived bladder carcinoma cell line growth inhibition [PI3K]
Conditions: for IC50: curve of first compound; for viability, T/C: stronger effect = lower value
Method in brief: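 Complex 3D spheroids (cancer cells + endothelial HUVEC + mesenchymal stem cells); drug pairs of targeted agent x inavolisib/alpelisib/duvelisib/copanlisib; half-log series from ~Cmax, max 10 microM if Cmax unknown; endpoint viability.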
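Note: agents incubated with spheroids for one week before read-out.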
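Throughout, for viability, T/C: 100% = DMSO vehicle-treated control wells.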

CC(C)n1nc(-c2ccc3oc(N)nc3c2)c2c(N)ncnc21 + CC(Nc1ncnc2nc[nH]c12)c1cc2cccc(Cl)c2c(=O)n1-c1ccccc1
IC50 (second compound 0.0316 µM): 50.8 nM | IC50 (second compound 0.1 µM): 50.2 nM | IC50 (second compound 0.316 µM): 46.5 nM | IC50 (second compound 1 µM): 38.7 nM | IC50 (second compound 3.16 µM): 33.4 nM | IC50 (second compound 10 µM): 17.3 nM | viability, T/C (second compound 0.0316 µM, first compound 0.000316 µM): 111% | viability, T/C (second compound 0.0316 µM, first compound 0.001 µM): 97.1% | viability, T/C (second compound 0.0316 µM, first compound 0.00316 µM): 121% | viability, T/C (second compound 0.0316 µM, first compound 0.01 µM): 98.6% | viability, T/C (second compound 0.0316 µM, first compound 0.0316 µM): 74.3% | viability, T/C (second compound 0.0316 µM, first compound 0.1 µM): 15.9% | viability, T/C (second compound 0.1 µM, first compound 0.000316 µM): 110% | viability, T/C (second compound 0.1 µM, first compound 0.001 µM): 108% | viability, T/C (second compound 0.1 µM, first compound 0.00316 µM): 107% | viability, T/C (second compound 0.1 µM, first compound 0.01 µM): 98.1% | viability, T/C (second compound 0.1 µM, first compound 0.0316 µM): 74% | viability, T/C (second compound 0.1 µM, first compound 0.1 µM): 14.4% | viability, T/C (second compound 0.316 µM, first compound 0.000316 µM): 100% | viability, T/C (second compound 0.316 µM, first compound 0.001 µM): 106% | viability, T/C (second compound 0.316 µM, first compound 0.00316 µM): 102% | viability, T/C (second compound 0.316 µM, first compound 0.01 µM): 99.3% | viability, T/C (second compound 0.316 µM, first compound 0.0316 µM): 69.1% | viability, T/C (second compound 0.316 µM, first compound 0.1 µM): 12.1% | viability, T/C (second compound 1 µM, first compound 0.000316 µM): 110% | viability, T/C (second compound 1 µM, first compound 0.001 µM): 91.2% | viability, T/C (second compound 1 µM, first compound 0.00316 µM): 100% | viability, T/C (second compound 1 µM, first compound 0.01 µM): 96.9% | viability, T/C (second compound 1 µM, first compound 0.0316 µM): 57.6% | viability, T/C (second compound 1 µM, first compound 0.1 µM): 14.1% | viability, T/C (second compound 3.16 µM, first compound 0.000316 µM): 95% | viability, T/C (second compound 3.16 µM, first compound 0.001 µM): 91% | viability, T/C (second compound 3.16 µM, first compound 0.00316 µM): 93.9% | viability, T/C (second compound 3.16 µM, first compound 0.01 µM): 78.7% | viability, T/C (second compound 3.16 µM, first compound 0.0316 µM): 52.2% | viability, T/C (second compound 3.16 µM, first compound 0.1 µM): 12.9% | viability, T/C (second compound 10 µM, first compound 0.000316 µM): 81.5% | viability, T/C (second compound 10 µM, first compound 0.001 µM): 81% | viability, T/C (second compound 10 µM, first compound 0.00316 µM): 80.3% | viability, T/C (second compound 10 µM, first compound 0.01 µM): 59% | viability, T/C (second compound 10 µM, first compound 0.0316 µM): 38.2% | viability, T/C (second compound 10 µM, first compound 0.1 µM): 13.6%
